Data from publication PMC11154582, “Modeling the Blood-Brain Barrier Permeability of Potential Heterocyclic Drugs via Biomimetic IAM Chromatography Technique Combined with QSAR Methodology” (Molecules, 2024).

Tested on: human cancer cells
Experiment: not given
Parameters: method as in ref [3,9,10,13,18-21] (a number printed in a supplementary file, which may have a reference list of its own: not looked up in the article's list)
Settings: supplement ref [3,9,10,13,18-21]; cited from earlier work

Structure (SMILES) | mechanism of antiproliferative action: inducing DNA damage | mechanism of antiproliferative action: promoting apoptotic caspases | mechanism of antiproliferative action: promoting apoptosis | mechanism of antiproliferative action: promoting necrosis
Cc1cc(Cl)ccc1OCc1nnc2n1CCN2c1ccccc1 [Compound 8] | DNA damage |  |  | 
Cc1ccccc1N1CCn2c1nnc(C(F)(F)F)c2=O [Compound 16] |  | promoting apoptotic caspases |  | 
COc1ccccc1N1CCn2c1nnc(C(F)(F)F)c2=O [Compound 18] |  | promoting apoptotic caspases |  | 
O=c1c(C(F)(F)F)nnc2n1CCN2c1ccccc1Cl [Compound 19] |  | promoting apoptotic caspases |  | 
CC(C)c1nnc2n(c1=O)CCN2c1ccccc1Cl [Compound 31] |  | promoting apoptotic caspases |  | 
CC(C)c1nnc2n(c1=O)CCN2c1ccc(Cl)cc1 [Compound 33] |  | promoting apoptotic caspases |  | 
CC(C)c1nnc2n(c1=O)CCN2c1ccc(Cl)c(Cl)c1 [Compound 34] |  | promoting apoptotic caspases |  | 
CCOC(=O)Cc1nnc2n(c1=O)CCN2c1ccccc1 [Compound 45] |  |  | apoptosis | necrosis
CCOC(=O)Cc1nnc2n(c1=O)CCN2c1cccc(Cl)c1 [Compound 48] |  |  | apoptosis | necrosis
CCOC(=O)Cc1nnc2n(c1=O)CCN2c1ccc(Cl)c(Cl)c1 [Compound 50] |  |  | apoptosis | necrosis
NNC(=O)c1nnc2n(c1=O)CCN2c1cccc(Cl)c1 [Compound 54] | DNA damage |  | apoptosis | 
O=c1c(-c2cccs2)nnc2n1CCN2c1ccc(Cl)c(Cl)c1 [Compound 80] |  |  | apoptosis | necrosis

Tested on: not given
Experiment: not given
Parameters: method as in ref [21,22] (a number printed in a supplementary file, which may have a reference list of its own: not looked up in the article's list)
Settings: supplement ref [21,22]; cited from earlier work

Structure (SMILES) | antiradical activity
NNC(=O)c1nnc2n(c1=O)CCN2c1ccc(Cl)c(Cl)c1 [Compound 55] | antiradical
COc1ccc(N2CCn3c2nnc(CC(=O)NN)c3=O)cc1 [Compound 58] | antiradical

Tested on: not listed separately
Experiment: Biomimetic IAM chromatography (log kw, IAM)
Type: physicochemical
Settings: IAM.PC.DD2 column, buffered acetonitrile, pH 7.4, 25 °C, extrapolated to buffer
Method: High performance liquid chromatography (HPLC) measurements were performed on a Shimadzu Vp liquid chromatographic system (Shimadzu, Izabelin, Poland). This instrument was equipped with LC 10AT pump, SPD 10A ultraviolet-visible detector, SCL 10A system controller, CTO-10 AS chromatographic oven, and a Rheodyne injector valve with a 20 μL loop. As the stationary phase Regis IAM.PC.DD2 column, 100 × 4.6 mm i.d., 10 μm (Morton Grove, IL, USA) was applied.
Buffered acetonitrile mixtures were used as effluents. Acetonitrile concentration, expressed as a volume fraction, was varied within a range from 0.2 to 0.5, with a constant step of 0.1. The buffer was prepared from 0.01 mol L^−1 solutions of Na2HPO4 and citric acid, and a pH value of 7.4 was fixed before mixing with an organic modifier. The flow rate was 1.3 mL min^−1. Each compound sample was dissolved in acetonitrile to obtain a concentration of 0.005 mg mL^−1, and each solute peak was detected under ultraviolet light at a wavelength of λmax = 254 nm. Each measurement was performed at a constant temperature (25 °C) at least three times. The dead time values were measured from sodium chloride peaks.
From among 126 heterocyclic compounds evaluated in this work (Table 1), 89 structures have been investigated previously on the IAM column: these are molecules from groups III, IV, V, VI, VII, VIII, IX, XI, XIII, and XV [21, 22, 23]. The remaining ones, i.e., 37 compounds from groups I, II, X, XII and XIV, were tested in this study for the first time using the biomimetic IAM chromatographic technique. To calculate the log kw values (i.e., the logarithms of retention parameter in the buffer as the mobile phase), the retention parameters, logs k (k = (tr − t0)/t0; where tr is the solute retention time, and t0 is a dead time), that were measured for all tested compounds, were used according to Soczewiński-Wachtmeister’s equation (Equation (5)): (5) log k=logtr−t0/t0=log kw−sφ where φ denotes the volume fraction of acetonitrile as organic modifier in the mobile phase, and kw means the retention parameter corresponding to buffer as the mobile phase. The log kw values were evaluated as linear regression coefficients (Table 2).

log kw, IAM | Structure (SMILES)
0.09 | Cc1cc(Cl)ccc1OCc1nnc2n1CCN2c1ccccc1 [Compound 8]
−0.27 | COc1ccc(N2CCn3c2nnc(CC(=O)NN)c3=O)cc1 [Compound 58]
2.26 | O=c1c(-c2cccs2)nnc2n1CCN2c1cccc(Cl)c1 [Compound 78]
1.53 | O=c1c(-c2cccs2)nnc2n1CCN2c1ccc(Cl)cc1 [Compound 79]
2.68 | O=c1c(-c2cccs2)nnc2n1CCN2c1ccc(Cl)c(Cl)c1 [Compound 80]
1.92 | O=c1c(-c2ccc([N+](=O)[O-])cc2)nnc2n1CCN2c1ccccc1 [Compound 93]
2.52 | Cc1ccccc1N1CCn2c1nnc(-c1ccc([N+](=O)[O-])cc1)c2=O [Compound 94]
1.83 | Cc1ccc(N2CCn3c2nnc(-c2ccc([N+](=O)[O-])cc2)c3=O)cc1 [Compound 95]
1.78 | COc1ccccc1N1CCn2c1nnc(-c1ccc([N+](=O)[O-])cc1)c2=O [Compound 96]
1.78 | Cc1cccc(N2CCn3c2nnc(-c2ccc([N+](=O)[O-])cc2)c3=O)c1C [Compound 97]
2.16 | O=c1c(-c2ccc([N+](=O)[O-])cc2)nnc2n1CCN2c1ccccc1Cl [Compound 98]
2.02 | O=c1c(-c2ccc([N+](=O)[O-])cc2)nnc2n1CCN2c1cccc(Cl)c1 [Compound 99]
2.52 | O=c1c(-c2ccc([N+](=O)[O-])cc2)nnc2n1CCN2c1ccc(Cl)cc1 [Compound 100]
3.22 | O=c1c(-c2ccc([N+](=O)[O-])cc2)nnc2n1CCN2c1ccc(Cl)c(Cl)c1 [Compound 101]

Tested on: not given
Experiment: not given
Parameters: method as in ref [14] (a number printed in a supplementary file, which may have a reference list of its own: not looked up in the article's list)
Settings: supplement ref [14]; cited from earlier work

Structure (SMILES) | antimetastatic activity
Cc1cccc(N2CCn3c2nnc(-c2ccccc2)c3=O)c1 [Compound 83] | antimetastatic
COc1ccc(N2CCn3c2nnc(-c2ccccc2)c3=O)cc1 [Compound 86] | antimetastatic

Tested on: oxidatively-stressed erythrocytes
Experiment: not given
Settings: supplement ref [4,19,26,30]; cited from earlier work

Structure (SMILES) | antihemolytic activity
Cc1cccc(N2CCn3c2nnc(-c2ccccc2)c3=O)c1 [Compound 83] | antihemolytic
O=c1c(-c2ccccc2)nnc2n1CCN2c1ccccc1Cl [Compound 89] | antihemolytic
O=c1c(-c2ccccc2)nnc2n1CCN2c1ccc(Cl)c(Cl)c1 [Compound 92] | antihemolytic

Tested on: not given
Experiment: not given
Parameters: method as in ref [8,16] (a number printed in a supplementary file, which may have a reference list of its own: not looked up in the article's list)
Settings: supplement ref [8,16]; cited from earlier work

Structure (SMILES) | analgesic activity
COC(=O)Cc1nnc2n(c1=O)CCN2c1ccc(C)cc1 [Compound 41] | analgesic
COC(=O)Cc1nnc2n(c1=O)CCN2c1ccc(OC)cc1 [Compound 42] | analgesic
NNC(=O)c1nnc2n(c1=O)CCN2c1ccccc1 [Compound 51] | analgesic
Cc1cccc(N2CCn3c2nnc(-c2ccccc2)c3=O)c1 [Compound 83] | analgesic
O=c1c(-c2ccccc2)nnc2n1CCN2c1ccccc1Cl [Compound 89] | analgesic
O=c1c(-c2ccccc2)nnc2n1CCN2c1ccc(Cl)cc1 [Compound 91] | analgesic
O=c1c(-c2ccccc2)nnc2n1CCN2c1ccc(Cl)c(Cl)c1 [Compound 92] | analgesic
O=c1c(Cc2ccccc2Cl)nnc2n1CCN2c1ccccc1 [Compound 103] | analgesic
Cc1ccc(N2CCn3c2nnc(Cc2ccccc2Cl)c3=O)cc1 [Compound 109] | analgesic
CCOc1ccc(N2CCn3c2nnc(Cc2ccccc2)c3=O)cc1 [Compound 112] | analgesic
CCOc1ccc(N2CCn3c2nnc(Cc2ccccc2Cl)c3=O)cc1 [Compound 114] | analgesic

Tested on: central nervous system of mice
Experiment: not given
Parameters: method as in PMID 24157086
Settings: preliminary tests, ref [21]; cited from earlier work

Structure (SMILES) | analgesic activity | toxicity
Cc1cccc(N2CCn3c2nnc(-c2ccccc2)c3=O)c1 [Compound 83] | analgesic activity | low toxicity
O=c1c(-c2ccccc2)nnc2n1CCN2c1ccccc1Cl [Compound 89] | analgesic activity | low toxicity
O=c1c(Cc2ccccc2Cl)nnc2n1CCN2c1ccccc1 [Compound 103] | analgesic activity | low toxicity
Cc1ccc(N2CCn3c2nnc(Cc2ccccc2Cl)c3=O)cc1 [Compound 109] | analgesic activity | low toxicity
CCOc1ccc(N2CCn3c2nnc(Cc2ccccc2Cl)c3=O)cc1 [Compound 114] | analgesic activity | low toxicity
CCOc1ccc(N2CCn3c2nnc(Cc2ccc(Cl)cc2)c3=O)cc1 [Compound 116] | analgesic activity | low toxicity

Tested on: not given
Experiment: not given
Settings: IAM column; ref [21]; cited from earlier work

Structure (SMILES) | log kw, IAM
NNC(=O)c1nnc2n(c1=O)CCN2c1ccccc1 [Compound 51] | −0.14
NNC(=O)c1nnc2n(c1=O)CCN2c1cccc(Cl)c1 [Compound 54] | 0.41
NNC(=O)c1nnc2n(c1=O)CCN2c1ccc(Cl)c(Cl)c1 [Compound 55] | 0.69

Same assay, conditions: IAM column; ref [22]; cited from earlier work

Structure (SMILES) | log kw, IAM
O=c1c(C(F)(F)F)nnc2n1CCN2c1ccccc1 [Compound 15] | 0.94
Cc1ccccc1N1CCn2c1nnc(C(F)(F)F)c2=O [Compound 16] | 0.76
COc1ccccc1N1CCn2c1nnc(C(F)(F)F)c2=O [Compound 18] | 0.67
O=c1c(C(F)(F)F)nnc2n1CCN2c1ccccc1Cl [Compound 19] | 0.88
CC(C)c1nnc2n(c1=O)CCN2c1ccccc1Cl [Compound 31] | 0.65
CC(C)c1nnc2n(c1=O)CCN2c1ccc(Cl)cc1 [Compound 33] | 1.39
CC(C)c1nnc2n(c1=O)CCN2c1ccc(Cl)c(Cl)c1 [Compound 34] | 1.67
CCOC(=O)c1nnc2n(c1=O)CCN2c1cccc(Cl)c1 [Compound 37] | 1.73
CCOC(=O)c1nnc2n(c1=O)CCN2c1ccc(Cl)c(Cl)c1 [Compound 39] | 3.36

Same assay, conditions: IAM column; ref [23]; cited from earlier work

Structure (SMILES) | log kw, IAM
COC(=O)Cc1nnc2n(c1=O)CCN2c1ccc(C)cc1 [Compound 41] | 1.33
COC(=O)Cc1nnc2n(c1=O)CCN2c1ccc(OC)cc1 [Compound 42] | 0.81
CCOC(=O)Cc1nnc2n(c1=O)CCN2c1ccccc1 [Compound 45] | 1.21
CCOC(=O)Cc1nnc2n(c1=O)CCN2c1cccc(Cl)c1 [Compound 48] | 2.05
CCOC(=O)Cc1nnc2n(c1=O)CCN2c1ccc(Cl)c(Cl)c1 [Compound 50] | 2.42
Cc1cccc(N2CCn3c2nnc(-c2ccccc2)c3=O)c1 [Compound 83] | 2.26
COc1ccc(N2CCn3c2nnc(-c2ccccc2)c3=O)cc1 [Compound 86] | 1.71
O=c1c(-c2ccccc2)nnc2n1CCN2c1ccccc1Cl [Compound 89] | 1.73
O=c1c(-c2ccccc2)nnc2n1CCN2c1ccc(Cl)cc1 [Compound 91] | 2.57
O=c1c(-c2ccccc2)nnc2n1CCN2c1ccc(Cl)c(Cl)c1 [Compound 92] | 3.26
O=c1c(Cc2ccccc2Cl)nnc2n1CCN2c1ccccc1 [Compound 103] | 2.34
Cc1ccc(N2CCn3c2nnc(Cc2ccccc2Cl)c3=O)cc1 [Compound 109] | 2.65
CCOc1ccc(N2CCn3c2nnc(Cc2ccccc2)c3=O)cc1 [Compound 112] | 2.11
CCOc1ccc(N2CCn3c2nnc(Cc2ccccc2Cl)c3=O)cc1 [Compound 114] | 2.51
CCOc1ccc(N2CCn3c2nnc(Cc2ccc(Cl)cc2)c3=O)cc1 [Compound 116] | 2.72

Tested on: human cancer cells
Experiment: not given
Parameters: method as in ref [3-7,9-15,17-21] (a number printed in a supplementary file, which may have a reference list of its own: not looked up in the article's list)
Settings: supplement ref [3-7,9-15,17-21]; cited from earlier work

Structure (SMILES) | antitumor activity
CCOC(=O)c1nnc2n(c1=O)CCN2c1cccc(Cl)c1 [Compound 37] | antitumor
CCOC(=O)c1nnc2n(c1=O)CCN2c1ccc(Cl)c(Cl)c1 [Compound 39] | antitumor
NNC(=O)c1nnc2n(c1=O)CCN2c1cccc(Cl)c1 [Compound 54] | antitumor
COc1ccc(N2CCn3c2nnc(-c2ccccc2)c3=O)cc1 [Compound 86] | antitumor
Cc1ccc(N2CCn3c2nnc(Cc2ccccc2Cl)c3=O)cc1 [Compound 109] | antitumor
CCOc1ccc(N2CCn3c2nnc(Cc2ccccc2Cl)c3=O)cc1 [Compound 114] | antitumor
CCOc1ccc(N2CCn3c2nnc(Cc2ccc(Cl)cc2)c3=O)cc1 [Compound 116] | antitumor

Tested on: zebrafish embryos and larvae
Experiment: not given
Parameters: method as in ref [18,20] (a number printed in a supplementary file, which may have a reference list of its own: not looked up in the article's list)
Settings: versus anticancer agent pemetrexed; supplement ref [18,20]; cited from earlier work

Structure (SMILES) | toxicity for zebrafish embryos and larvae compared with pemetrexed
O=c1c(C(F)(F)F)nnc2n1CCN2c1ccccc1 [Compound 15] | lower
Cc1ccccc1N1CCn2c1nnc(C(F)(F)F)c2=O [Compound 16] | lower
